From US10653732B2, “Composition for stimulating insulin secretion from cells and use thereof” (KOREA INSTITUTE OF SCIENCE AND TECHNOLOGY, priority 2017, dated 2020)
Entries after “also recorded” stand apart in the source; their conditions may differ.

Experiments:
INS-1 cells [1] = assay: Protecting effect on pancreatic toxicity (streptozotocin-treated INS-1 cells, CCK-8); details: for Cell viability (%): rat, 24 h
Procedure: The cell line INS-1 (Biohermes, Shanghai, China) was used to evaluate a protecting effect on pancreatic toxicity as follows.
INS-1 cells were cultured in RPMI1640 medium (Cellgro, Manassas, USA) supplemented with 10% fetal bovine serum (FBS), 100 unit/mL of penicillin G, 100 μg/mL of streptomycin, 10 mM Hepes, 2 mM L-glutamine, 1 mM sodium pyruvate, and 0.05 mM 2-merchapto ethanol in an incubator maintained at 37° C. and 95% air/5% carbon dioxide. Among the above-mentioned ingredients, the reagents of which manufacturers were not mentioned were purchased from Gibco BRL, Life Technologies.
The cultured INS-1 cells were dispensed at a density of 1×10^4 per well in 100 μL of the same medium in a 96-well plate, and cultured for 24 hours under the same conditions to stabilize the cells. […] Then, 10 μL (final concentration of 50 μM) of 500 μM streptozotocin in the same medium was added and cultured for 24 hours. Then, 10 μL of CCK-8 (Dojindo Laboratories, Japan) reagent was added to each well, and cultured at 37° C. 1 hour later, absorbance at 450 nm was measured by using a BIO-TEK (Winooski, Vt., USA) microplate reader to measure cell viability. The predetermined concentrations are as follows: concentrations of the extract and the fractions were 0 μg/mL, 5 μg/mL, 10 μg/mL, 25 μg/mL, 50 μg/mL, and 100 μg/mL. The concentration of the single compound was 0 μM, 5 μM, 10 μM, 25 μM, 50 μM, and 100 μM.

INS-1 cells [2] = assay: Measurement of cytotoxicity against INS-1 cells (CCK-8 cell viability); type: cell-based, rat; details: for Cell viability (%): 24 hours, INS-1; for cytotoxicity / toxicity in words: INS-1 cells, concentrations of Table 1
Procedure: A cell line INS-1 (Biohermes, Shanghai, China) is a rat insulinoma, and has ability to secrete insulin.
The concentration of the single compound was 1.0 μM, 2.5 μM, and 5.0 μM.
In Table 1, cell viability was calculated by the following equation:
Cell viability (%)=NB×100, wherein A represents absorbance of a non-sample added group and B represents absorbance of a sample-added group.

INS-1 cells [3] = assay: Effect on insulin secretion of INS-1 cells (stimulation index, rat insulin RIA); type: cell-based; details: for Stimulation index (SI): 16.7 mM / […] glucose; for insulin secretion of INS-1 cells in words: concentrations of Table 2
Procedure: Thereafter, the cells were washed twice with 2 ml of Krebs-Ringer buffer which was prepared by mixing 114 mM sodium chloride (NaCl), 4.4 mM potassium chloride (KCl), 1 mM magnesium sulfate (MgSO4), 1.28 mM calcium chloride (CaCl2), 29.5 mM sodium bicarbonate (NaHCO3), 10 mM Hepes (Gibco BRL Life Technologies), and 0.1% bovine serum albumin (BSA) and adjusting a hydrogen ion concentration at pH 7.4.
The concentration of the single compound was 1 μM, 2.5 μM, and 5 μM.
0.2 mL of Krebs-Ringer buffer containing […] glucose was added to each well, and incubated for 1 hour. Thereafter, centrifugation was performed at 4° C. for 10 minutes at 12,000 rpm, and a supernatant was taken and quantity of insulin was measured by using a Rat insulin RIA kit (Gentaur Molecular Products, Belgium). Stimulation index (SI) was calculated by dividing a value measured at a high concentration of glucose, i.e., quantity of insulin secreted by stimulation of 16.7 mM glucose by a value measured at a low concentration of glucose, i.e., quantity of insulin secreted by stimulation of 3.3 mM glucose. As a positive control group, gliclazide was used at a concentration of 2.5 μM, 5.0 μM, 10 μM, or 20 μM.

INS-1 cells [4] = assay: Image-based cell analysis of apoptosis (Annexin V/PI) in streptozotocin-treated INS-1 cells; design: species or system rat; details: 50 μM streptozotocin; for green fluorescent (apoptotic) cells, microscopic image FIG. 8A: 10 μM or more; for Apoptosis (%): 10 μM, 24 hours, annexin V-positive cells; for apoptosis by streptozotocin in words, FIG. 8B: INS-1 cells
Procedure: Thereafter, hypoxylonol-C and BNT at a concentration of 10 μM were added to 2.7 mL of the same medium and further cultured for 2 hours. […] Then, cells were collected by using trypsin, and washed with PBS once. The cells were suspended in 100 μL of Annexin binding buffer (composition: 100 mM HEPES, 140 mM NaCl, 25 mM CaCl2, pH 7.4) at a density of 5×10^5 to 5×10^6 cells/mL, and then mixed with 5 μL of Annexin V Alexa Fluor 488, and fixed and stained at room temperature for 20 minutes in the dark room. The cell suspension was centrifuged to discard the supernatant. Precipitated cell pellets were re-suspended in 100 μL of Annexin binding buffer. 1 μL of propidium was added to the cell suspension and mixed well to fix and stain the cells at room temperature for 1 minute to 5 minutes in the dark room. Analysis of the stained cells was performed by using a Tali Image-based cytometer and TaliPCApp (version 1.0).
Cells were sorted into living cells (annexin V-negative/PI-negative), early apoptotic cells (annexin V-positive/PI-negative), and late apoptotic cells or necrotic cells (annexin V-positive/PI-positive), and total apoptotic cells was expressed as a percentage of annexin V-positive/PI-negative or positive cells.

[5] = Fukai et al., J. Nat. Prod. 2014, 77, 1065-1068; cited from earlier work
[6] = 1.0 (μg/mL; μM for single compound)
[7] = 2.5 (μg/mL; μM for single compound)
[8] = 5.0 (μg/mL; μM for single compound)
[9] = 1.0 (head μg/ml; b127 μM for single compound)
[10] = 2.5 (head μg/ml; b127, b128 μM for single compound and gliclazide)
[11] = 5.0 (head μg/ml; b127, b128 μM for single compound and gliclazide)

SMILES	Cell viability (%) (INS-1 cells [2]; [6])	Cell viability (%) (INS-1 cells [2]; [7])	Cell viability (%) (INS-1 cells [2]; [8])	cytotoxicity / toxicity in words (INS-1 cells [2])	Stimulation index (SI) (INS-1 cells [3]; [9])	Stimulation index (SI) (INS-1 cells [3]; [10])	Stimulation index (SI) (INS-1 cells [3]; [11])	insulin secretion of INS-1 cells in words (INS-1 cells [3])	cell viability reduced by streptozotocin, effect in words (INS-1 cells [1]; 50 μM streptozotocin)	Cell viability (%) (INS-1 cells [1]; 5 µM)	Cell viability (%) (INS-1 cells [1]; 10 µM)	Cell viability (%) (INS-1 cells [1]; 25 µM)	Cell viability (%) (INS-1 cells [1]; 50 µM)	green fluorescent (apoptotic) cells, microscopic image FIG. 8A (INS-1 cells [4])	Apoptosis (%) (INS-1 cells [4])	apoptosis by streptozotocin in words, FIG. 8B (INS-1 cells [4])	further results
CN(N=O)C(=O)N[C@H]1C(O)O[C@H](CO)[C@@H](O)[C@@H]1O (mixture of isomers) [streptozotocin, reference compound]																	number of INS-1 cells as compared with non-treated group (INS-1 cells [1]; 50 μM streptozotocin, 24 hours): ≤ 50%
Oc1cccc2c(-c3ccc(O)c4c(O)cccc34)ccc(O)c12 [BNT, 1,1′-binaphthalene-4,4′,5,5′-tetrol]	100.3 ± 3.6	100.1 ± 2.1	106.6 ± 2.9	no cytotoxicity; also recorded: no toxicity	6.7 ± 0.0	7.4 ± 0.0	6.8 ± 0.2	concentration-dependent manner	significantly increased cell viability	73.5 ± 3.0	76.8 ± 4.5	78.4 ± 1.5	81.5 ± 3.3	apoptotic cells were decreased	19.3 ± 0.5	remarkably reduced apoptosis	
O=C1CC2C(=C3c4c2ccc(O)c4[C@@H](O)C[C@@H]3O)c2cccc(O)c21 (stereo partly shown) [Hypoxylonol-C]	97.4 ± 1.7	96.4 ± 1.4	97.3 ± 3.0	no cytotoxicity; also recorded: no toxicity	6.3 ± 0.3	5.3 ± 0.1	6.1 ± 0.1	concentration-dependent manner	significantly increased cell viability	66.0 ± 0.9	75.6 ± 2.5	80.7 ± 1.5	85.7 ± 1.7	apoptotic cells were decreased	21.6 ± 1.5	remarkably reduced apoptosis	antiangiogenic effect [5]: has an antiangiogenic effect
O=C1CC2C(=C3c4c2ccc(O)c4[C@H](O)C[C@@H]3O)c2cccc(O)c21 (stereo partly shown) [Hypoxylonol-F]	96.2 ± 4.5	97.3 ± 4.6	96.1 ± 0.9	no cytotoxicity; also recorded: no toxicity	7.1 ± 0.4	7.7 ± 0.3	10.6 ± 0.3	concentration-dependent manner	significantly increased cell viability	70.1 ± 1.7	68.3 ± 3.2	70.0 ± 4.3	69.8 ± 3.8				Cell viability (%) (INS-1 cells [1]; 100 µM): 71.6 ± 0.9%
Cc1ccc(S(=O)(=O)NC(=O)NN2CC3CCCC3C2)cc1 (stereo not shown) [gliclazide, reference compound]						6.1 ± 0.0	5.7 ± 0.0										Stimulation index (SI) (INS-1 cells [3]; 10.0 (head μg/ml; b128 μM for gliclazide)): 6.1 ± 0.1; Stimulation index (SI) (INS-1 cells [3]; 20.0 (head μg/ml; b128 μM for gliclazide)): 9.3 ± 0.0
